Data from patent publication US8703815B2, “Small molecules that covalently modify transthyretin” (The Scripps Research Institute, priority 2009, dated 2014).
Read-outs that look alike come from different tables or passages of the source.

Legend:
WT-TTR = molecular target: T1, WT-TTR (Homo sapiens, UniProt P02766); experiment: Fluorimetric assay with recombinant WT-TTR; type: binding; settings: for increase in fluorescence intensity with WT-TTR vs compound alone in buffer: 24 hours
T1 construct: composed of 127-residue β-sheet-rich subunits; made in house; host or cells: E. coli
Description: WT-TTR was expressed in an E. coli expression system and purified as described previously. […] The samples were vortexed, and incubated for 18 h at 25° C. […] The excitation slit was set at 5 nm and the emission slit was set at […]. The samples were excited at 328 nm and the emission spectra were collected from 350 to 550 nm. WT-TTR was expressed and purified from an E. coli expression system as described previously. [Lashuel et al., Biochemistry 1999, 38:13560]. […] The samples were vortexed, and incubated for 18 hours at 25° C. […] The excitation slits was set at 5 nm and the emission slits was set at […]. The samples were excited at 328 nm and the emission spectra were collected from 330 to 550 nm (FIG. 4). The time-dependent fluorescence changes were monitored in similar manner (FIG. 5).

K15A-TTR = molecular target: T2, K15A-TTR (Homo sapiens, UniProt P02766, K35A); experiment: Fluorimetric assay with recombinant K15A-TTR; type: binding
T2 construct: composed of 127-residue β-sheet-rich subunits; made in house
Description: [The source words this procedure for another variant and says it was used here with some conditions changed.] The excitation spectra are shown with dotted traces (λmax=328 nm), and emission spectra are adjacently (λmax=384 nm). Very low fluorescence resulted from 328 nm excitation of stilbene Compounds 4 or 2 alone in buffer (FIGS. 4A and 4B; traces substantially on the X-axis).
WT-TTR was expressed in an E. coli expression system and purified as described previously. [Lashuel et al., Biochemistry 1999, 38, 13560-13573] The covalent TTR modifiers (A1 or A2) or the non-covalent TTR ligand B2 (5 μL of a 1.44 mM solution in DMSO, final concentration: 7.2 μM) were added to 1 mL of a solution of WT-TTR homotetramer (0.2 mg/mL, 3.6 μM) in 10 mM phosphate, 100 mM KCl and 1 mM EDTA (pH 7.0 phosphate buffer) in a 2 mL Eppendorf tube. The samples were vortexed, and incubated for 18 h at 25° C. The fluorescence changes were monitored using a Varian Cary 50 spectrofluorometer at 20° C. in a 1 cm path length quartz cell. The excitation slit was set at 5 nm and the emission slit was set at […]. The samples were excited at 328 nm and the emission spectra were collected from 350 to 550 nm.
WT-TTR was expressed and purified from an E. coli expression system as described previously. [Lashuel et al., Biochemistry 1999, 38:13560]. The covalent modifiers (Compounds 4 or 2) or the non-covalent TTR ligand Compound B2 (5 μL of a 1.44 mM solution in DMSO) were added to 1 mL of a solution of WT-TTR (0.2 mg/mL, 3.6 μM) in 10 mM phosphate, 100 mM KCl and 1 mM EDTA (pH 7.0) in a 2 mL Eppendorf tube. The samples were vortexed, and incubated for 18 hours at 25° C. The fluorescence changes were monitored using a Varian Cary 50 spectrofluorometer at 20° C. in a 1 cm path length quartz cell. The excitation slits was set at 5 nm and the emission slits was set at […]. The samples were excited at 328 nm and the emission spectra were collected from 330 to 550 nm (FIG. 4). The time-dependent fluorescence changes were monitored in similar manner (FIG. 5).

[1] = tested on: WT-TTR cytotoxicity in human IMR-32 neuroblastoma cells; experiment: Inhibition of WT-TTR cytotoxicity in IMR-32 cells (resazurin reduction); type: cell-based; settings: WT-TTR 8 μM, compounds 2, 4, 6 and 8 μM, 24 hours
Description: Cell viability was measured after 24 hours by a resazurin reduction assay.
(§1) The human neuroblastoma IMR-32 cell line (CCL-127 ATCC) was maintained in Opti-MEM® medium (Invitrogen), supplemented with 5% FBS, 1 mM Hepes buffer, 2 mM L-glutamine, 100 units/mL penicillin, 100 μg/mL streptomycin and 0.05 mg/mL CaCl2 (complete cell medium). Cells were seeded in black wall, clear bottom, tissue culture treated 96-well plates (Costar) at a density of 6,000 cells/well in complete cell medium and incubated overnight (about 18 hours) at 37° C.
(§2) Recombinant WT-TTR purified in the cold was used as the cytotoxic insult. The protein was buffer-exchanged in Hanks' Balanced Salt Solution (HBSS, Mediatech, Manassas, Va.) at 10° C. using a Centriprep® filter device (10 kDa MWCO, Millipore). Compounds (16 mM in DMSO) were diluted 1:1000 with WT-TTR (16 μM in HBSS, filter sterilized) or with HBSS only, vortexed and incubated for 18 hours at 37° C. WT-TTR (16 μM in HBSS) containing the same amount of DMSO was prepared in parallel and incubated under the same conditions.
(§3) The medium was removed from the cells and replaced immediately by the TTR/compound mixtures or HBSS previously diluted 1:1 in Opti-MEM® supplemented with 0.8 mg/mL BSA, 2 mM Hepes buffer, 4 mM L-glutamine, 200 units/mL penicillin, 200 μg/mL streptomycin and 0.1 mg/mL CaCl2. The cells were incubated 24 hours at 37° C. Cell viability was evaluated by a resazurin reduction assay.
(§4) Briefly, 10 μL of resazurin (500 μM, PBS) was added to each well and fluorescence quantified in a plate reader (Ex/Em 530/590 nm, Tecan Safire 2, Austria) after 1 hour of incubation at 37° C. Cell viability was calculated as percentage of fluorescence relative to cells treated only with vehicle (100% viability) after subtraction of blank fluorescence (wells without cells). Averages and standard errors from 2 independently performed studies, each performed at least in triplicate, were calculated using GraphPrism (San Diego, Calif., US).

IMR-32 cells = experiment: Compound cytotoxicity to IMR-32 cells in the absence of WT-TTR; type: cell-based, human
Description: Metabolically active cells reduce the resazurin redox dye to resorufin, a soluble fluorescent compound. [O'Brien et al., Eur. J. Biochem. 267:5421-5426 (2002)] The percentage of viable cells was calculated relative to cells treated with vehicle only (cell culture media and DMSO=100% viable).
as §1, §2, §3, §4

| Structure (SMILES) | fluorescence after incubation with WT-TTR (in words) (WT-TTR; phosphate buffer pH 7, 18 hours) | fluorescence upon binding to K15A-TTR (in words) (K15A-TTR) | inhibition of WT-TTR cytotoxicity to IMR-32 cells (in words) [1] | increase in fluorescence intensity with WT-TTR vs compound alone in buffer (WT-TTR; WT-TTR […], compound 7.2 μM) | cytotoxicity to IMR-32 cells in the absence of WT-TTR (IMR-32 cells; human, IMR-32 neuroblastoma cells, 24 h, 8 µM) | t50 of conjugation to WT-TTR by fluorescence (WT-TTR; WT-TTR […], compound 7.2 μM) [min] | cytotoxicity to IMR-32 cells in the absence of WT-TTR (IMR-32 cells) |
| --- | --- | --- | --- | --- | --- | --- | --- |
| Cc1cc(/C=C/c2cc(C(=O)Sc3ccc(F)cc3)cc(N(C)C)c2)cc(C)c1O [Compound A2, (E)-S-4-fluorophenyl 3-(dimethylamino)-5-(4-hydroxy-3,5-dimethylstyryl)-benzothioate] | bright blue fluorescence | no significant fluorescence increase | – | – | – | – | – |
| Cc1cc(/C=C/c2cccc(C(=O)Oc3ccc(F)cc3)c2)cc(C)c1O [Compound 4, (E)-4-fluorophenyl 3-(4-hydroxy-3,5-dimethylstyryl)benzoate] | – | remain non-fluorescent | clearly and dose-dependently inhibits IMR-32 cytotoxicity | about 560 fold | None of these compounds were cytotoxic to IMR-32 cells | – | – |
| Cc1cc(/C=C/c2cccc(C(=O)Sc3ccccc3)c2)cc(C)c1O [Compound 2, (E)-S-phenyl 3-(4-hydroxy-3,5-dimethylstyryl)benzothioate] | – | remain non-fluorescent | clearly and dose-dependently inhibits IMR-32 cytotoxicity | about 1100 fold | – | 22 | None of these compounds were cytotoxic to IMR-32 cells |
